Assay results from patent publication US20240041042A1, “1-(PYRIDYL)-5-AZINYLPYRAZOLE DERIVATIVES, AND THEIR USE FOR CONTROL OF UNDESIRED PLANT GROWTH” (Bayer Aktiengesellschaft, priority 2020, published 2024).

How the values were obtained:
Type in all cases: in vivo
[1] = test system: Abutilon theophrasti (ABUTH); test: Pre-emergence herbicidal action against ABUTH; conditions: 100% = plants have died
How it was run: (§1)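 Read-out is visual percent damage relative to untreated pots, with 100% meaning dead plants and 0% meaning no difference, assessed roughly three weeks after treatment. Compounds were applied pre-emergence to the covering soil at up to 320 g/ha.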

[2] = test system: Alopecurus myosuroides (ALOMY); test: Pre-emergence herbicidal action against ALOMY; conditions: scored visually after about 3 weeks, 100% = plants have died
How it was run: as §1

[3] = test system: Amaranthus retroflexus (AMARE); test: Pre-emergence herbicidal action against AMARE; conditions: visual scoring after about 3 weeks vs untreated controls
How it was run: as §1

Avena fatua (AVEFA) [4] = test: Pre-emergence herbicidal action against AVEFA; conditions: 320 g/ha, visual scoring after about 3 weeks vs untreated controls
How it was run: as §1

[5] = test system: Echinochloa crus-galli (ECHCG); test: Pre-emergence herbicidal action against ECHCG
How it was run: as §1

Lolium rigidum (LOLRI) [6] = test: Pre-emergence herbicidal action against LOLRI
How it was run: as §1

[7] = test system: Matricaria inodora (MATIN); test: Pre-emergence herbicidal action against MATIN; conditions: dosage 320 g/ha
How it was run: as §1

[8] = test system: Pharbitis purpurea (PHBPU); test: Pre-emergence herbicidal action against PHBPU; conditions: dosage 320 g/ha
How it was run: as §1

[9] = test system: Polygonum convolvulus (POLCO); test: Pre-emergence herbicidal action against POLCO; conditions: dosage 320 g/ha
How it was run: as §1

Setaria viridis (SETVI) [10] = test: Pre-emergence herbicidal action against SETVI
How it was run: as §1

[11] = test system: Verconica persica (VERPE); test: Pre-emergence herbicidal action against VERPE; conditions: dosage 320 g/ha
How it was run: as §1

Viola tricolor (VIOTR) [12] = test: Pre-emergence herbicidal action against VIOTR
How it was run: as §1

[13] = test system: Abutilon theophrasti (ABUTH); test: Post-emergence herbicidal action against ABUTH; conditions: visual rating about 3 weeks after treatment vs untreated controls (100% = plants have died, 0% = like control plants)
How it was run: (§2)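 Greenhouse plants sprayed at the one-leaf stage, 2–3 weeks after sowing, with WP or EC formulations plus 0.5% additive at 600 l/ha water. Activity rated visually after about 3 weeks versus untreated controls (100% = dead, 0% = like control), at 320 g/ha or lower.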

[14] = test system: Alopecurus myosuroides (ALOMY); test: Post-emergence herbicidal action against ALOMY; conditions: visual rating about 3 weeks after treatment vs untreated controls (100% = plants have died, 0% = like control plants)
How it was run: as §2

[15] = test system: Amaranthus retroflexus (AMARE); test: Post-emergence herbicidal action against AMARE; conditions: 320 g/ha, visual rating about 3 weeks after treatment
How it was run: as §2

Avena fatua (AVEFA) [16] = test: Post-emergence herbicidal action against AVEFA; conditions: 320 g/ha, visual rating about 3 weeks after treatment
How it was run: as §2

[17] = test system: Echinochloa crus-galli (ECHCG); test: Post-emergence herbicidal action against ECHCG
How it was run: as §2

Lolium rigidum (LOLRI) [18] = test: Post-emergence herbicidal action against LOLRI
How it was run: as §2

[19] = test system: Matricaria inodora (MATIN); test: Post-emergence herbicidal action against MATIN; conditions: dosage 320 g/ha
How it was run: as §2

[20] = test system: Polygonum convolvulus (POLCO); test: Post-emergence herbicidal action against POLCO; conditions: dosage 320 g/ha
How it was run: as §2

Setaria viridis (SETVI) [21] = test: Post-emergence herbicidal action against SETVI
How it was run: as §2

[22] = test system: Verconica persica (VERPE); test: Post-emergence herbicidal action against VERPE; conditions: 320 g/ha, VERPE
How it was run: as §2

Viola tricolor (VIOTR) [23] = test: Post-emergence herbicidal action against VIOTR
How it was run: as §2

SMILES: CCOC(=O)COc1nn(-c2ccccn2)c(-c2ccc(F)nc2)c1Br [Example I-86]
- Pre-emergence action against ABUTH ([1]; 80 g/ha, scored visually after about 3 weeks vs untreated controls, 0% = like control plants): 80%
- Pre-emergence action against ABUTH ([1]; Dosage column 320 g/ha (title prints 3200 g/ha), scored visually after about 3 weeks): 100%
- Pre-emergence action against ALOMY ([2]; 80 g/ha): 100%
- Pre-emergence action against ALOMY ([2]; 320 g/ha): 100%
- Pre-emergence action against AMARE in % ([3]; 80 g/ha): 100%
- Pre-emergence action against AMARE in % ([3]; 320 g/ha): 100%
- Pre-emergence action against AVEFA in % (Avena fatua (AVEFA) [4]): 90%
- Pre-emergence action against ECHCG in % ([5]; dosage 80 g/ha): 100%
- Pre-emergence action against ECHCG in % ([5]; dosage 320 g/ha): 100%
- Pre-emergence action against LOLRI in % (Lolium rigidum (LOLRI) [6]; dosage 80 g/ha): 100%
- Pre-emergence action against LOLRI in % (Lolium rigidum (LOLRI) [6]; dosage 320 g/ha): 100%
- Pre-emergence action against MATIN in % [7]: 100%
- Pre-emergence action against PHBPU in % [8]: 90%
- Pre-emergence action against POLCO in % [9]: 100%
- Pre-emergence action against SETVI in % (Setaria viridis (SETVI) [10]; dosage 80 g/ha): 100%
- Pre-emergence action against SETVI in % (Setaria viridis (SETVI) [10]; dosage 320 g/ha): 100%
- Pre-emergence action against VERPE in % [11]: 90%
- Pre-emergence action against VIOTR in % (Viola tricolor (VIOTR) [12]; 320 g/ha, Viola tricolor): 100%
- Pre-emergence action against VIOTR in % (Viola tricolor (VIOTR) [12]; dosage 80 g/ha): 80%
- Post-emergence action against ABUTH in % ([13]; 80 g/ha): 90%
- Post-emergence action against ABUTH in % ([13]; 320 g/ha): 90%
- Post-emergence action against ALOMY in % ([14]; 80 g/ha): 100%
- Post-emergence action against ALOMY in % ([14]; 320 g/ha): 100%
- Post-emergence action against AMARE in % [15]: 90%
- Post-emergence action against AVEFA in % (Avena fatua (AVEFA) [16]): 100%
- Post-emergence action against ECHCG in % ([17]; dosage 80 g/ha): 100%
- Post-emergence action against ECHCG in % ([17]; dosage 320 g/ha): 100%
- Post-emergence action against LOLRI in % (Lolium rigidum (LOLRI) [18]; dosage 80 g/ha): 100%
- Post-emergence action against LOLRI in % (Lolium rigidum (LOLRI) [18]; dosage 320 g/ha): 100%
- Post-emergence action against MATIN in % [19]: 80%
- Post-emergence action against POLCO in % [20]: 90%
- Post-emergence action against SETVI in % (Setaria viridis (SETVI) [21]; dosage 80 g/ha): 100%
- Post-emergence action against SETVI in % (Setaria viridis (SETVI) [21]; dosage 320 g/ha): 100%
- Post-emergence action against VERPE in % [22]: 80%
- Post-emergence action against VIOTR in % (Viola tricolor (VIOTR) [23]; 80 g/ha): 80%
- Post-emergence action against VIOTR in % (Viola tricolor (VIOTR) [23]; 320 g/ha): 90%
